From publication PMC6150381, “Design, Synthesis, and Biological Evaluation of N,N-Disubstituted-4-arylthiazole-2-methylamine Derivatives as Cholesteryl Ester Transfer Inhibitors” (Molecules : A Journal of Synthetic Chemistry and Natural …, 2017)

What was measured:
recombinant CETP = target: T1, recombinant CETP (Homo sapiens, UniProt P11597); experiment: In vitro CETP inhibitory assay (BODIPY-CE fluorescence assay, CETP RP Activity Assay Kit); type: biochemical; settings: for IC50: CETP inhibition, eight-point titration, each concentration tested three times
T1 construct: purchased Roar, New York, NY, USA RB-RPAK
T1 sequence (P11597 18-493): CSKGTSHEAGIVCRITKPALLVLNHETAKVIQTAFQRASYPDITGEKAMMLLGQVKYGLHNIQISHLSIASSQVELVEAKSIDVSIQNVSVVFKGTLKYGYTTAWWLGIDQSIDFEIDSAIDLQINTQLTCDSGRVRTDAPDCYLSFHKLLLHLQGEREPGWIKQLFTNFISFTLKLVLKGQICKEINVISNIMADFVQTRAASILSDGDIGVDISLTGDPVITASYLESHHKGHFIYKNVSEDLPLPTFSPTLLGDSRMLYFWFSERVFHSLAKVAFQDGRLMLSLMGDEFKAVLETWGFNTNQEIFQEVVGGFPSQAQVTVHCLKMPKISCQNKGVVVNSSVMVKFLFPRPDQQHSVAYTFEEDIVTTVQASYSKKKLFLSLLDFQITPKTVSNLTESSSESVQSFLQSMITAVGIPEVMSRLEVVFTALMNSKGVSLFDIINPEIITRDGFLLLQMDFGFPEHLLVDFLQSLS
Description: The IC50 was determined from a curve fit of the data with each concentration tested three times.

| melting point | IC50 (recombinant CETP) | decrease of activity on replacing the nitro group at the 4-position of ring B (recombinant CETP; compared with the 4-nitro compound (30)) | SMILES |
| --- | --- | --- | --- |
| 81 to 82.4 °C | 25.7 ± 0.41 µM |  | Fc1ccc(CN(Cc2ncc(-c3ccccc3)o2)c2cccc(Oc3ccccc3)c2)cc1 [Compound 17a, N-(4-Fluorobenzyl)-3-phenoxy-N-((5-phenyloxazol-2-yl)methyl)aniline] |
| 90.5 to 92.5 °C | 10.6 ± 0.32 µM |  | Fc1ccc(CN(Cc2ncc(-c3ccccc3)s2)c2cccc(Oc3ccccc3)c2)cc1 [Compound 17b, N-(4-Fluorobenzyl)-3-phenoxy-N-((5-phenylthiazol-2-yl)methyl)aniline] |
|  | 17.1 ± 0.44 µM |  | Cc1cc(CN(Cc2ccc(F)cc2)c2cccc(Oc3ccccc3)c2)nn1-c1ccccc1 [Compound 17c, N-(4-Fluorobenzyl)-N-((5-methyl-1-phenyl-1H-pyrazol-3-yl)methyl)-3-phenoxyaniline] |
|  | 9.03 ± 0.21 µM |  | Fc1ccc(CN(Cc2nc(-c3ccccc3)cs2)c2cccc(Oc3ccccc3)c2)cc1 [Compound 17d, N-(4-Fluorobenzyl)-3-phenoxy-N-((4-phenylthiazol-2-yl)methyl)aniline] |
| 97.3 to 98.2 °C | 26.9 ± 0.35 µM |  | Fc1ccc(CN(Cc2nnc(-c3ccccc3)o2)c2cccc(Oc3ccccc3)c2)cc1 [Compound 17e, N-(4-Fluorobenzyl)-3-phenoxy-N-((5-phenyl-1,3,4-oxadiazol-2-yl)methyl)aniline] |
|  | 13.7 ± 0.63 µM |  | Fc1ccc(CN(Cc2nc3ccccc3[nH]2)c2cccc(Oc3ccccc3)c2)cc1 [Compound 17f, N-((1H-Benzo[d]imidazol-2-yl)methyl)-N-(4-fluorobenzyl)-3-phenoxyaniline] |
|  | 15.2 ± 0.52 µM |  | Fc1ccc(CN(Cc2nc3ccccc3o2)c2cccc(Oc3ccccc3)c2)cc1 [Compound 17g, N-(Benzo[d]oxazol-2-ylmethyl)-N-(4-fluorobenzyl)-3-phenoxyaniline] |

More lines, now with the values behind:

| SMILES | melting point | IC50 (recombinant CETP) | decrease of activity on replacing the nitro group at the 4-position of ring B (recombinant CETP; compared with the 4-nitro compound (30)) |
| --- | --- | --- | --- |
| COc1cccc(N(Cc2ccc(F)cc2)Cc2nc(-c3ccccc3)cs2)c1 [Compound 21, N-(4-Fluorobenzyl)-3-methoxy-N-((4-phenylthiazol-2-yl)methyl)aniline] |  | 13.96 ± 0.11 µM |  |
| COc1ccc(N(Cc2ccc(F)cc2)Cc2nc(-c3ccccc3)cs2)cc1OC [Compound 22, N-(4-Fluorobenzyl)-3,4-dimethoxy-N-((4-phenylthiazol-2-yl)methyl)aniline] |  | 3.58 ± 0.03 µM |  |
| O=[N+]([O-])c1ccc(-c2csc(CN(Cc3ccc(F)cc3)c3cccc(OC(F)(F)F)c3)n2)cc1 [Compound 23, N-(4-Fluorobenzyl)-N-((4-(4-nitrophenyl)thiazol-2-yl)methyl)-3-(trifluoromethoxy)aniline] |  | 31.69 ± 0.25 µM |  |
| O=[N+]([O-])c1ccc(-c2csc(CN(Cc3ccc(F)cc3)c3cccc(C(F)(F)F)c3)n2)cc1 [Compound 24, N-(4-Fluorobenzyl)-N-((4-(4-nitrophenyl)thiazol-2-yl)methyl)-3-(trifluoromethyl)aniline] | 107 to 108.4 °C | 13.8 ± 0.14 µM |  |
| O=[N+]([O-])c1ccc(-c2csc(CN(Cc3ccc(F)cc3)c3ccc(-c4ccccc4)cc3)n2)cc1 [Compound 25, N-(4-Fluorobenzyl)-N-((4-(4-nitrophenyl)thiazol-2-yl)methyl)-[1,1′-biphenyl]-4-amine] | 164.5 to 166.2 °C | 9.55 ± 0.08 µM |  |
| O=[N+]([O-])c1ccc(-c2csc(CN(Cc3ccc(F)cc3)c3cccc(-c4ccccc4)c3)n2)cc1 [Compound 26, N-(4-Fluorobenzyl)-N-((4-(4-nitrophenyl)thiazol-2-yl)methyl)-[1,1′-biphenyl]-3-amine] | 149.5 to 150.8 °C | 8.98 ± 0.05 µM |  |
| O=[N+]([O-])c1ccc(-c2csc(CN(Cc3ccc(F)cc3)c3ccccc3-c3ccccc3)n2)cc1 [Compound 27, N-(4-Fluorobenzyl)-N-((4-(4-nitrophenyl)thiazol-2-yl)methyl)-[1,1′-biphenyl]-2-amine] |  | 1.02 ± 0.01 µM |  |
| O=[N+]([O-])c1ccc(-c2csc(CN(Cc3ccc(F)cc3)c3cccc(-c4cccs4)c3)n2)cc1 [Compound 28, N-(4-Fluorobenzyl)-N-((4-(4-nitrophenyl)thiazol-2-yl)methyl)-3-(thiophen-2-yl)aniline] | 143.9 to 148.8 °C | 7.77 ± 0.13 µM |  |
| Cn1nccc1-c1cccc(N(Cc2ccc(F)cc2)Cc2nc(-c3ccc([N+](=O)[O-])cc3)cs2)c1 [Compound 29, N-(4-Fluorobenzyl)-3-(1-methyl-1H-pyrazol-5-yl)-N-((4-(4-nitrophenyl)thiazol-2-yl)methyl)aniline] |  | 24.56 ± 0.22 µM |  |
| COc1ccc(N(Cc2ccc(F)cc2)Cc2nc(-c3ccc(F)cc3)cs2)cc1OC [Compound 31, N-(4-Fluorobenzyl)-N-((4-(4-fluorophenyl)thiazol-2-yl)methyl)-3,4-dimethoxyaniline] |  | 2.46 ± 0.06 µM |  |
| COc1ccc(N(Cc2ccc(F)cc2)Cc2nc(-c3ccc(C#N)cc3)cs2)cc1OC [Compound 33, 4-(2-(((3,4-Dimethoxyphenyl)(4-fluorobenzyl)amino)methyl)thiazol-4-yl)benzonitrile] | 105.4 to 106.6 °C | 1.5 ± 0.03 µM |  |
| COc1ccc(N(Cc2ccc(F)cc2)Cc2nc(-c3cccc([N+](=O)[O-])c3)cs2)cc1OC [Compound 34, N-(4-Fluorobenzyl)-3,4-dimethoxy-N-((4-(3-nitrophenyl)thiazol-2-yl)methyl)aniline] | 120.5 to 121.6 °C | 1.38 ± 0.07 µM |  |
| COc1ccc(N(Cc2ccc(F)cc2)Cc2nc(-c3ccccc3[N+](=O)[O-])cs2)cc1OC [Compound 35, N-(4-Fluorobenzyl)-3,4-dimethoxy-N-((4-(2-nitrophenyl)thiazol-2-yl)methyl)aniline] |  | 6.36 ± 0.12 µM |  |
| COc1ccc(N(Cc2ccc(F)cc2)Cc2nc(-c3ccc(Br)cc3)cs2)cc1OC [Compound 36, N-((4-(4-Bromophenyl)thiazol-2-yl)methyl)-N-(4-fluorobenzyl)-3,4-dimethoxyaniline] |  | 8.96 ± 0.15 µM |  |
| COc1ccc(N(Cc2ccc(F)cc2)Cc2nc(-c3ccc(-c4cnn(C)c4)cc3)cs2)cc1OC [Compound 37, N-(4-Fluorobenzyl)-3,4-dimethoxy-N-((4-(4-(1-methyl-1H-pyrazol-4-yl)phenyl)thiazol-2-yl)methyl)aniline] | 126.1 to 130.3 °C | 4.02 ± 0.05 µM |  |
| COc1ccc(N(Cc2ccc(F)cc2)Cc2nc(-c3ccc(-c4c(C)noc4C)cc3)cs2)cc1OC [Compound 38, N-((4-(4-(3,5-Dimethylisoxazol-4-yl)phenyl)thiazol-2-yl)methyl)-N-(4-fluorobenzyl)-3,4-dimethoxyaniline] | 69 to 69.8 °C | 7.57 ± 0.1 µM |  |
| COc1ccc(N(Cc2ccc(F)cc2)Cc2nc(-c3ccc(-c4ccnn4C)cc3)cs2)cc1OC [Compound 39, N-(4-Fluorobenzyl)-3,4-dimethoxy-N-((4-(4-(1-methyl-1H-pyrazol-5-yl)phenyl)thiazol-2-yl)methyl)aniline] | 102.4 to 103.3 °C | 6.38 ± 0.09 µM |  |
| COc1ccc(N(Cc2ccc(F)cc2)Cc2nc(-c3ccc4ccccc4c3)cs2)cc1OC [Compound 41, N-(4-Fluorobenzyl)-3,4-dimethoxy-N-((4-(naphthalen-2-yl)thiazol-2-yl)methyl)aniline] |  | 3.51 ± 0.06 µM |  |
| CCOC(=O)CCCOc1ccc(-c2csc(CN(Cc3ccc(F)cc3)c3ccc(OC)c(OC)c3)n2)cc1 [Compound 48, Ethyl-4-(4-(2-(((3,4-dimethoxyphenyl)(4-fluorobenzyl)amino)methyl)thiazol-4-yl)phenoxy)butanoate] |  | 8.4 ± 0.04 µM | ~10 fold |
